US8771967B2, “Immunomodulation of functional T cell assays for diagnosis of infectious or autoimmune disorders” (priority 2010, dated 2014)

B1: IL-12: inflammatory cytokine purchased from R&D System (protein, UniProt P29459 23-219; P29460 23-328, looked up)
Interleukin-12 subunit alpha: RNLPVATPDPGMFPCLHHSQNLLRAVSNMLQKARQTLEFYPCTSEEIDHEDITKDKTSTVEACLPLELTKNESCLNSRETSFITNGSCLASRKTSFMMALCLSSIYEDLKMYQVEFKTMNAKLLMDPKRQIFLDQNMLAVIDELMQALNFNSETVPQKSSLEEPDFYKTKIKLCILLHAFRIRAVTIDRVMSYLNAS
Interleukin-12 subunit beta: IWELKKDVYVVELDWYPDAPGEMVVLTCDTPEEDGITWTLDQSSEVLGSGKTLTIQVKEFGDAGQYTCHKGGEVLSHSLLLLHKKEDGIWSTDILKDQKEPKNKTFLRCEAKNYSGRFTCWWLTTISTDLTFSVKSSRGSSDPQGVTCGAATLSAERVRGDNKEYEYSVECQEDSACPAAEESLPIEVMVDAVHKLKYENYTSSFFIRDIIKPDPPKNLQLKPLKNSRQVEVSWEYPDTWSTPHSYFSLTFCVQVQGKSKREKKDRVFTDKTSATVICRKNASISVRAQDRYYSSSWSEWASVPCS

Assays:
[1] = test system: M. tuberculosis-specific T cells; experiment: QuantiFERON-TB Gold In-Tube (QFT-GIT) whole blood IFN-γ release assay with immunomodulation by TLR agonists; details: for IFN-γ responses compared to the standard assay in anergic subjects / IFN-γ response at intermediate concentration / enhancement of IFN-γ response (median): poly(I:C) 40 μg/ml, imiquimod 2 μg/ml; for IFN-γ responses compared to the standard assay in anergic subjects: P <0.05; for IFN-γ response compared to the standard assay, two concentrations: 8 subjects with LTBI, poly(I:C) 10 and 100 μg/ml, LPS 125 and 500 pg/ml, imiquimod 1 and 5 μg/ml; for enhancement of IFN-γ response (median): vs standard QFT-GIT; for recapitulation of the effects of TLR agonists on the QFT-GIT assay: IL-6 at 200 and 2000 pg/ml, IL-12 at 12.5 and 25 pg/ml, INF-α at 15 and 30 pg/ml, alone or in combination; for kinetics of IFN-γ release: QFT-GIT with immunomodulation vs without, correlated with cytokine induction / APC maturation
From the text: Healthy adults were recruited from the Stanford Hospital clinical laboratories using a protocol approved by the Institutional Review Board. After obtaining in informed consent, volunteers were asked to complete a standardized questionnaire to assess risk factors for TB exposure. LTBI was defined as prior history of positive TST and QFT-GIT and ≧1 risk factor for LTBI. Uninfected control was defined as US born with prior negative TST and QFT-GIT and no risk factors.
The QFT-GIT assay was performed according to package insert with a slight modification described below. Up to 10 μA of each TLR agonist or an equivalent volume of endotoxin-free water was added to each QFT-GIT tube. Blood was collected in a 10 mL Kendall Monoject Green Stopper tube and 1 mL was quickly transferred to each QFT-GIT tube. Tubes were placed in a 3TC incubator for 22 hours or as indicated. ELISA was performed according to package insert. […] Calculation of IFN-γ concentrations was done with the software provided by the manufacturer.
Statistical analyses were performed using the Prism software (Graph Pad, San Diego, Calif.). The Wilcoxon's test of medians was used to compare differences in medians. All statistical tests were computed for a two-sided type I error rate of 5%.

antigen presenting cells = experiment: Flow cytometry of surface expression of MHC and costimulatory molecules in the QFT-GIT assay; assay type: cell-based, human; details: compared to unstimulated blood cells; LPS 250 pg/ml, poly(I:C) 40 μg/ml; 3 and 6 hours
Protocol: The QFT-GIT tubes were incubated upside down to prevent migration of cells into the gel layer. At the end of incubation 100 μl of 20 mM EDTA was added per tube. Samples were vortexed and incubated at room temperature for 15 minutes. Blood was transferred to a 15 ml polypropylene tube containing 9 ml of 1×FACS™ Lysing Solution (BD Biosciences, Immunocytometry Systems, San Jose, Calif.). Samples were incubated at room temperature for 10 minutes and directly transferred to a −70° C. freezer for storage. The cell surface immune profiling studies were performed at the HIMC. The cells were thawed in warm media, washed once with FACS buffer (PBS supplemented with 2% FBS and 0.1% sodium azide) and resuspended at 1×10^7 viable cells/ml. 5×10^5 cells per well were stained for 45 min at room temperature with the following antibodies: All reagents were purchased from BD Biosciences. Cells were washed three times with FACS buffer, and resuspended in […]. 10,000 cells per sample were collected using DIVA 6.0 software on an LSR11 flow cytometer (BD Biosciences). Data analysis was performed using FlowJo v9.3 by gating on live cells based on forward versus side scatter profiles, then on singlets using forward scatter area versus height, followed by cell subset-specific gating.

[2] = test system: blood cells in the Nil tube; experiment: Cytokine profiling of plasma from the QFT-GIT Nil tube after immunomodulation; assay type: cell-based, human; details: poly(I:C) 40 μg/ml, LPS 250 pg/ml, 22 h
Protocol: Was performed at the Human Immune Monitoring Center (HIMC) at Stanford University. 100 μl of plasma from the QFT-GIT Nil tube was subjected to cytokine profiling. Procarta Cytokine Assay custom 51-plex kit (Affymetrix, Palo Alto, Calif.) was used according to manufacturer's recommendations.

[3] = 8 individuals with histories of LTBI but currently negative QFT-GIT, LPS 250 pg/ml
[4] = subjects with LTBI, LPS 250 pg/ml
[5] = uninfected controls, LPS 250 pg/ml

Row | Molecule | IFN-γ responses compared to the standard assay in anergic subjects [1, 3] | IFN-γ response compared to the standard assay, two concentrations [1] | IFN-γ response at intermediate concentration [1, 4] | enhancement of IFN-γ response (median) [1, 4] [fold] | IFN-γ response at intermediate concentration [1, 5] | recapitulation of the effects of TLR agonists on the QFT-GIT assay [1] | surface expression of MHC II and costimulatory molecules in monocytes and partially in B cells and myeloid dendritic cells (antigen presenting cells) | levels of IL-6, IL-12 p40, IFN-α, and other cytokines [2] | consistency in eliciting a response higher than the cutoff value for the standard assay ([1]; 8 individuals with histories of LTBI but currently negative QFT-GIT, cutoff 0.35 IU/ml) | kinetics of IFN-γ release [1] | magnitude of the IFN-γ responses (TB Ag minus Nil) [1, 5] [IU/ml]
1 | CC(C)Cn1cnc2c(N)nc3ccccc3c21 [imiquimod] | significantly increased | dose-dependent enhancement | significant enhancement | 3 | not in the uninfected controls | – | – | – | – | – | –
2 | IL-6: inflammatory cytokine purchased from R&D System | – | – | – | – | – | failed to recapitulate | – | – | – | – | –
3 | lipopolysaccharide [LPS] | significantly increased | dose-dependent enhancement | significant enhancement | 3.1 | significantly increased | – | increased | significantly increased | most consistent | earlier and more robust release of IFN-γ | ≤ 0.5
4 | poly(I:C) | significantly increased | dose-dependent enhancement | significant enhancement | 5.7 | not in the uninfected controls | – | not | significantly increased | – | earlier and more robust release of IFN-γ | –
5 | B1 | – | – | – | – | – | failed to recapitulate | – | – | – | – | –
